The values that follow come from ChEMBL document CHEMBL4507311, “Data for DCP probe A-1155463” (2021).

One may read the inhibition as the share of the control response that was lost under treatment. For orientation: IC50 means the concentration that inhibits the measured activity by half. As a reminder, the EC50 is the concentration that produces a half-maximal response.

SMILES strings stand for the structures. Active and inactive are the calls of the source. The calls are words filed in the database; no cut-off is given here.

Series [1] concerns the target Androgen receptor (Homo sapiens) (UniProt P10275). Put plainly: AR (h) Eurofins-Cerep binding assay. Further details: ligand concentration 1 nM. The conditions noted are these: filed as agonist, Compound concentration 10.0 uM.
Series [2] addresses Type-2 angiotensin II receptor (Homo sapiens) (UniProt P50052). In words: AT2 (h) Eurofins-Cerep binding assay. Further details: ligand concentration 0.01 nM. The conditions noted are these: filed as agonist, Compound concentration 10.0 uM.
The target of series [3] is T1, GABA-A receptor; anion channel (Rattus norvegicus) (UniProt O09028+P15431+P18506+P18508+P19969+P20236+P23574+P23576+P28471+P28473+P30191+P62813+P63079+P63138+Q91ZM7+Q9ES14). Put plainly: BZD (central) Eurofins-Cerep binding assay. It counts as protein-complex assay. Also noted: ligand concentration 0.4 nM. The conditions noted are these: filed as agonist, Compound concentration 10.0 uM.

The target of series [4] is voltage-gated Na+ channel (site 2) (Rattus norvegicus, UniProt F1LQQ7+O08562+O88420+O88457+P04774+P04775+P08104+P15389+P15390+Q62968). Put plainly: Na+ channel (site 2) Eurofins-Cerep binding assay. The series is classed as protein assay. Also noted: incubation time 60 min, incubation temperature 37°C, ligand concentration 10 nM. The conditions noted are these: rat cerebral cortex, probe [3H]batrachotoxin (10 nM), compound concentration 10 uM, read-out: % Inhibition of Control Specific Binding (Mean n=2).

For series [5], the target named is Endothelin receptor type B (Homo sapiens) (UniProt P24530). In words: ETB (h) Eurofins-Cerep binding assay. Further details: ligand concentration 0.03 nM. Conditions: filed as agonist, Compound concentration 10.0 uM.
Chain of Endothelin receptor type B (Homo sapiens) (P24530 whole entry): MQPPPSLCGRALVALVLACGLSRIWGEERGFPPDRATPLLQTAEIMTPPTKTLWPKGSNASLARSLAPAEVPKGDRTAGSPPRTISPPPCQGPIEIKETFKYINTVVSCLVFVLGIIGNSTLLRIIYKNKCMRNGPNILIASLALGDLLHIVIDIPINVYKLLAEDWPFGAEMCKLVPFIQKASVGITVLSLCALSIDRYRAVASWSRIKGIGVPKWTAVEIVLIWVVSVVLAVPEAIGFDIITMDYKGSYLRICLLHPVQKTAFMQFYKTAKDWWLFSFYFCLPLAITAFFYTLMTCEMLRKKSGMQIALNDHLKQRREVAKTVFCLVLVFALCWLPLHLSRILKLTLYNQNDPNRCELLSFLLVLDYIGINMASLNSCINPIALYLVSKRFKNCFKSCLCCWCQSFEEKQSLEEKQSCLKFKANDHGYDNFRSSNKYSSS
Series [6] has as its target Estrogen receptor (Homo sapiens) (UniProt P03372). Put plainly: Estrogen ER alpha (h) Eurofins-Cerep binding assay. Also noted: ligand concentration 0.5 nM. Conditions: filed as agonist, Compound concentration 10.0 uM.
In series [7] the target is 5-hydroxytryptamine receptor 2B (Homo sapiens) (UniProt P41595). In words: 5-HT2B (h) Eurofins-Cerep binding assay. Conditions: filed as agonist, Compound concentration 10.0 uM. Further details: ligand concentration 0.2 nM.
Chain of 5-hydroxytryptamine receptor 2B (Homo sapiens) (P41595 whole entry): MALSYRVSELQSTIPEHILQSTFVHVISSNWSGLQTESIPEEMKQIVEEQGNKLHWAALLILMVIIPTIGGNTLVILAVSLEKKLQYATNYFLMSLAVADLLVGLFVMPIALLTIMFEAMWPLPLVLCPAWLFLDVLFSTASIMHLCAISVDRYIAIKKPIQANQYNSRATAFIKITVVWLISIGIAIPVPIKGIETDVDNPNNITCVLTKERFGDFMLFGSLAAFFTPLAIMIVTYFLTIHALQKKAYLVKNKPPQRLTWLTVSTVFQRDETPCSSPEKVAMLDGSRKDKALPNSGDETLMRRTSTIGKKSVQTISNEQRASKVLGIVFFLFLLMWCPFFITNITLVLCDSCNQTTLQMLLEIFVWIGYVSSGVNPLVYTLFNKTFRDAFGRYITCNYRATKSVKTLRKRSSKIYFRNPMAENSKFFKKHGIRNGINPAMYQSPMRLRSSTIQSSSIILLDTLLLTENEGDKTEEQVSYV
The target in series [8] is Apoptosis regulator Bcl-2 (Homo sapiens, UniProt P10415). Put plainly: Time-resolved fluorescence energy transfer (TR-FRET) with BCL2. For orientation: In TR-FRET formats the signal depends on donor and acceptor labels being close together.
Chain of Apoptosis regulator Bcl-2 (P10415 whole entry): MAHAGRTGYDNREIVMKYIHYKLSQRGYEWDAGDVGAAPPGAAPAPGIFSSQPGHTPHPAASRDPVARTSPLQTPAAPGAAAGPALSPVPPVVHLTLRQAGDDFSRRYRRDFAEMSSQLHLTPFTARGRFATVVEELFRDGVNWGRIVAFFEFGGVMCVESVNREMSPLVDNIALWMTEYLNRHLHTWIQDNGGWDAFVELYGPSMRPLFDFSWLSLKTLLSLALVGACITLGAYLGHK
Series [9] has as its target Glutamate NMDA receptor (Rattus norvegicus) (UniProt P35439+Q00959+Q00960+Q00961+Q62645+Q8VHN2+Q9R1M7). Put plainly: PCP Eurofins-Cerep binding assay. The series is classed as protein-complex assay. Further details: ligand concentration 10 nM. Conditions: filed as antagonist, Compound concentration 10.0 uM.
Series [10] addresses cGMP-inhibited 3',5'-cyclic phosphodiesterase 3A (Homo sapiens) (UniProt Q14432). Put plainly: PDE3A (h) Eurofins-Cerep enzyme and uptake assay. Conditions: Compound concentration 10.0 uM.
The target of series [11] is 5-hydroxytryptamine receptor 2A (Homo sapiens) (UniProt P28223). Put plainly: 5-HT2A (h) Eurofins-Cerep binding assay. Conditions: filed as antagonist, Compound concentration 10.0 uM. Also noted: ligand concentration 0.5 nM.
Chain of 5-hydroxytryptamine receptor 2A (Homo sapiens) (P28223 whole entry): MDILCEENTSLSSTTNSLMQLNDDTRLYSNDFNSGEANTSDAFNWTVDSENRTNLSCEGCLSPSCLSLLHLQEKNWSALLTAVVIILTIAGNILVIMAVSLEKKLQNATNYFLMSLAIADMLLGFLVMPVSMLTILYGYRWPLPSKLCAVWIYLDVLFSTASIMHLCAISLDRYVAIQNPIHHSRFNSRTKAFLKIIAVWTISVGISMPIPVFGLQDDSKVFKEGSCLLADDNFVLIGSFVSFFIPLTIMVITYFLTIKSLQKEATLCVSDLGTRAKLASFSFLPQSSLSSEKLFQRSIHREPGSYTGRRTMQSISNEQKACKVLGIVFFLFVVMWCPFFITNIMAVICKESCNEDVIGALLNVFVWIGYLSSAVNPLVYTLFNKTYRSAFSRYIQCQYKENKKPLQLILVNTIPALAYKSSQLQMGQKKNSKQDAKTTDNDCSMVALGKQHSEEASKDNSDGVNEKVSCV
Series [12] concerns the target T2, Muscarinic acetylcholine receptor M4 (Homo sapiens) (UniProt P08173).
T2 sequence (whole entry): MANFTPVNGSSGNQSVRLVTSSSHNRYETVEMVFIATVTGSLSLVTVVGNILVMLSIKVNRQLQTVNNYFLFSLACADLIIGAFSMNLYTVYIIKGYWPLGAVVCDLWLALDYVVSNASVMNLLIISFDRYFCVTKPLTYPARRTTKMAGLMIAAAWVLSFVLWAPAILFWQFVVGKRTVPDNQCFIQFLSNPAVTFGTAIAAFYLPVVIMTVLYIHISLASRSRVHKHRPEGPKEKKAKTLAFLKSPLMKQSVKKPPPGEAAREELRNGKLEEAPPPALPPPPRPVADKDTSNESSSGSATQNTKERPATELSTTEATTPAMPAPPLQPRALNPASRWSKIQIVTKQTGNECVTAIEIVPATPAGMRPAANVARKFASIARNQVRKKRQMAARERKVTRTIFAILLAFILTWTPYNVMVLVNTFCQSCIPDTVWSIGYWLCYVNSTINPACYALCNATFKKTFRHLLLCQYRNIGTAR
In words: M4 (h) Eurofins-Cerep binding assay. The conditions noted are these: filed as antagonist, Compound concentration 10.0 uM. Also noted: ligand concentration 0.2 nM.

For series [13], the target named is Adenosine receptor A3 (Homo sapiens) (UniProt P0DMS8). Put plainly: A3 (h) Eurofins-Cerep binding assay. Also noted: ligand concentration 0.15 nM. The conditions noted are these: filed as agonist, Compound concentration 10.0 uM.
Chain of Adenosine receptor A3 (Homo sapiens) (P0DMS8 whole entry): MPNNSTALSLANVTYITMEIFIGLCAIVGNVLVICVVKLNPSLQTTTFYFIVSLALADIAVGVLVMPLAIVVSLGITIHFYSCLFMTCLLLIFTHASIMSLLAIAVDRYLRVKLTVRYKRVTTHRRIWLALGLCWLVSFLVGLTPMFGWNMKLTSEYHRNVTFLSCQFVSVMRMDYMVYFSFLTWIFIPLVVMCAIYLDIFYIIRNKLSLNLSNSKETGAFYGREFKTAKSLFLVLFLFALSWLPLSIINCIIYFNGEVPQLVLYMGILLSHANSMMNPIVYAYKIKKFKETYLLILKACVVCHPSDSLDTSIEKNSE
Series [14] concerns the target Adenosine receptor A1 (Homo sapiens) (UniProt P30542). In words: A1 (h) Eurofins-Cerep binding assay. Further details: ligand concentration 1 nM. Conditions: filed as antagonist, Compound concentration 10.0 uM.
Series [15] has as its target Induced myeloid leukemia cell differentiation protein Mcl-1 (Homo sapiens, UniProt Q07820). Put plainly: Time-resolved fluorescence energy transfer (TR-FRET) with MCL1.
Series [16] deals with Endothelin-1 receptor (Homo sapiens) (UniProt P25101). In words: ETA (h) Eurofins-Cerep binding assay. Further details: ligand concentration 0.03 nM. Conditions: filed as agonist, Compound concentration 10.0 uM.
Chain of Endothelin-1 receptor (Homo sapiens) (P25101 whole entry): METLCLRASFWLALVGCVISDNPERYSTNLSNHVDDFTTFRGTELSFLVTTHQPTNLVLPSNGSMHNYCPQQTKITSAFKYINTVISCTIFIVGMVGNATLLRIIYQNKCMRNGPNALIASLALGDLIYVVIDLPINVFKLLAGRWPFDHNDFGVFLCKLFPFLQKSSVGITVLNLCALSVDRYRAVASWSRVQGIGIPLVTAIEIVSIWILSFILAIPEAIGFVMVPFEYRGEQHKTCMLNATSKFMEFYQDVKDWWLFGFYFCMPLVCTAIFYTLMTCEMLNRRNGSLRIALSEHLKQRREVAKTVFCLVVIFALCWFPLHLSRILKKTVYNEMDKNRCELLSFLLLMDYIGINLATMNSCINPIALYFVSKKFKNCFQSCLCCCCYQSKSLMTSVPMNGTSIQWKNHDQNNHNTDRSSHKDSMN
Series [17] concerns the target L-type Ca2+ channel (diltiazem site, benzothiazepines) (Rattus norvegicus, UniProt P22002+P27732+Q02485). Put plainly: Ca2+ channel (L, diltiazem site) (benzothiazepines) Eurofins-Cerep binding assay. The series is classed as protein assay. Further details: incubation time 120 min, incubation temperature RT, ligand concentration 15 nM. Conditions: rat cerebral cortex, probe [3H]diltiazem (15 nM), compound concentration 10 uM, read-out: % Inhibition of Control Specific Binding (Mean n=2).

Series [18] addresses Cannabinoid receptor 2 (Homo sapiens) (UniProt P34972). Put plainly: CB2 (h) Eurofins-Cerep binding assay. Further details: ligand concentration 0.8 nM. The conditions noted are these: filed as agonist, Compound concentration 10.0 uM.
The species entered for another series is Rattus norvegicus. In words: SKCa channel Eurofins-Cerep binding assay. Also noted: ligand concentration 0.007 nM. The conditions noted are these: filed as antagonist, Compound concentration 10.0 uM.
Series [19] concerns the target T1, GABA-A receptor; anion channel (Rattus norvegicus). Put plainly: Cl- channel (GABA-gated) Eurofins-Cerep binding assay. Also noted: ligand concentration 3 nM. Conditions: filed as antagonist, Compound concentration 10.0 uM. It counts as protein-complex assay.
Series [20] deals with Tumor necrosis factor (Homo sapiens) (UniProt P01375). Put plainly: TNF-alpha (h) Eurofins-Cerep binding assay. Further details: ligand concentration 0.1 nM. Conditions: filed as agonist, Compound concentration 10.0 uM.
The next series relates to MOLT-4. Put plainly: CellTiter-Glo Luminescent Cell Viability Assay (BCL-XL dependent cell line MOLT-4). It counts as functional, cell-based. The conditions noted are these: Homo sapiens.
In series [21] the target is T3, Alpha-2A adrenergic receptor (Homo sapiens) (UniProt P08913).
T3 sequence (whole entry): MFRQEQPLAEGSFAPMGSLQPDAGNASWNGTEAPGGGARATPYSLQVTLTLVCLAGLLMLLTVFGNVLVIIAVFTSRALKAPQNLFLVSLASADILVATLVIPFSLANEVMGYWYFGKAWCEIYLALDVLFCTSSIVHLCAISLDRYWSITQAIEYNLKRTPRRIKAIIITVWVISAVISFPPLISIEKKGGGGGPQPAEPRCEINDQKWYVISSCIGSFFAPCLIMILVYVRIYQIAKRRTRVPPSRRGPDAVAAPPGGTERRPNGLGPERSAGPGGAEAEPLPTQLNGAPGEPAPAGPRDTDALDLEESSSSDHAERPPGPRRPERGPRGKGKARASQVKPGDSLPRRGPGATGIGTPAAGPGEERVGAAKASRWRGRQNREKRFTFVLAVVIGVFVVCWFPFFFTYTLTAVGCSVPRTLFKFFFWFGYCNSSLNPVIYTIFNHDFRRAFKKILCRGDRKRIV
In words: Alpha2A (h) Eurofins-Cerep binding assay. Further details: ligand concentration 1 nM. The conditions noted are these: filed as antagonist, Compound concentration 10.0 uM.

Chain of cGMP-inhibited 3',5'-cyclic phosphodiesterase 3A (Homo sapiens) (Q14432 whole entry): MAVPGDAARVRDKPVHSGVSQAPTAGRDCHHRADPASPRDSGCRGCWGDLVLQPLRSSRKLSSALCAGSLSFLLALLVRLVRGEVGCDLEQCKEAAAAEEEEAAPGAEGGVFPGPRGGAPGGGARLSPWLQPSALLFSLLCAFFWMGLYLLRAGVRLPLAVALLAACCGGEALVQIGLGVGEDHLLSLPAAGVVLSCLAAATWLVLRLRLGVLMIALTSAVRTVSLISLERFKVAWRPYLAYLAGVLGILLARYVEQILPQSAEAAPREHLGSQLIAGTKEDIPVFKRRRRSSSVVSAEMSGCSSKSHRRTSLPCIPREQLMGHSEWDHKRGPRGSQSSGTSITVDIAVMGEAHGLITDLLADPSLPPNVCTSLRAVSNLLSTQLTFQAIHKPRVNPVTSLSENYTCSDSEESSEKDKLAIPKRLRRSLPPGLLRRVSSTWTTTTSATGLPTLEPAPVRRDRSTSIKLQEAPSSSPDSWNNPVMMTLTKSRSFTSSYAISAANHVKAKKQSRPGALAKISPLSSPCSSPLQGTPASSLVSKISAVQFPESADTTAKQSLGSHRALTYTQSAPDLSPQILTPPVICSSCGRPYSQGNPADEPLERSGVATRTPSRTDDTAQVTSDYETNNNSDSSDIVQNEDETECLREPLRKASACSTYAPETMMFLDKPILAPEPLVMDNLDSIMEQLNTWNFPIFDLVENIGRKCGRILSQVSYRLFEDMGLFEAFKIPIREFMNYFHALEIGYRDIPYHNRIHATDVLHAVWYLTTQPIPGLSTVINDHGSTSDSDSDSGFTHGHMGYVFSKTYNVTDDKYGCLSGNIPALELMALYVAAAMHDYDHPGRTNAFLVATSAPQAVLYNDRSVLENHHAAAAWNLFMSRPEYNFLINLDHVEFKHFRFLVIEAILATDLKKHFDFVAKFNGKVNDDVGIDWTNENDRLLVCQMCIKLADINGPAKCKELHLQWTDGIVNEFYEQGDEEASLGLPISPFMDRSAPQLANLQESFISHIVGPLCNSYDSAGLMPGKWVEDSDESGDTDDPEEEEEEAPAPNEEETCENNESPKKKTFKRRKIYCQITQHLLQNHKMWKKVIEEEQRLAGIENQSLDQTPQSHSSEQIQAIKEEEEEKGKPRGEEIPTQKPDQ
Chain of Estrogen receptor (Homo sapiens) (P03372 whole entry): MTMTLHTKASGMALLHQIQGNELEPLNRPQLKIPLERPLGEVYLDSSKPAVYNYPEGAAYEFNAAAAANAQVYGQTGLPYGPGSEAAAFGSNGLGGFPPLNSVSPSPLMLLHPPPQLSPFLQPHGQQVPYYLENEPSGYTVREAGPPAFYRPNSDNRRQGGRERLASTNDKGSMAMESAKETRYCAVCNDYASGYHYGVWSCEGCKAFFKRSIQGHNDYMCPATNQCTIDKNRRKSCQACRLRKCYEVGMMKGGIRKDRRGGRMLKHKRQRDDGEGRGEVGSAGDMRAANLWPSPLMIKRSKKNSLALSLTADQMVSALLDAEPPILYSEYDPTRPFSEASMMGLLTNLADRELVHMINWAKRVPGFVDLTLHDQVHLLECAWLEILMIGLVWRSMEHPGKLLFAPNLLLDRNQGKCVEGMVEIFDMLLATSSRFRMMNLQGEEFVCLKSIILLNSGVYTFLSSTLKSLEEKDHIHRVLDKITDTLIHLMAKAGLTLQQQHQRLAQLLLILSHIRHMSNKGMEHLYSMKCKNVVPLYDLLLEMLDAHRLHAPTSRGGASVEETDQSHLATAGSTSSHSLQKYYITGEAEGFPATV
Chain of Induced myeloid leukemia cell differentiation protein Mcl-1 (Q07820 whole entry): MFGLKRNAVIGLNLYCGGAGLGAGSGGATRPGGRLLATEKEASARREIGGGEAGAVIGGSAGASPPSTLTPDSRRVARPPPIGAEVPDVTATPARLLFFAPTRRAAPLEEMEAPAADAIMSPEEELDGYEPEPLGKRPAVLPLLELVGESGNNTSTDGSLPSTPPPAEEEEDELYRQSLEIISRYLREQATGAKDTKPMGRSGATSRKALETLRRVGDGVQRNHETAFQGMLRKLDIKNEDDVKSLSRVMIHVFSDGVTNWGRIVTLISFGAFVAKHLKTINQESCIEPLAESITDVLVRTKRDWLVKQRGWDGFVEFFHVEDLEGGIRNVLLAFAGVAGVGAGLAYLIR
Chain of Cannabinoid receptor 2 (Homo sapiens) (P34972 whole entry): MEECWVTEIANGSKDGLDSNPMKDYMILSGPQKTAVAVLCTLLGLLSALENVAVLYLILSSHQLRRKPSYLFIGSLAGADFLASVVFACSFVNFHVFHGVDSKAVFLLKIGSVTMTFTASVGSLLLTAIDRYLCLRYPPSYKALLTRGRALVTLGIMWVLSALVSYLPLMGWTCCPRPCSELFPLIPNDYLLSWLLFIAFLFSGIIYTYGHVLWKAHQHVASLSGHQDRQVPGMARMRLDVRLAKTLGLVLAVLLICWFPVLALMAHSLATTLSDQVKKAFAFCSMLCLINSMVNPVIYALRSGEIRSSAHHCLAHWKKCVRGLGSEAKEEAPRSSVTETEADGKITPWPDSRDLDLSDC

In the case of `O=C(Nc1nc2ccccc2s1)c1cccc2c1CN(c1nc(C(=O)O)c(CCOc3ccc(-n4ncc5cncnc54)cc3)s1)CC2` [A-1107969], the % Inhibition of Control Specific Binding (Mean n=2) in [1] was -12.1%; in series [2] it was 1.5%; in series [3], 17.3%; in [5], 0.8%; in series [6] it was 8.4%; in series [7] it was -44.2%. For the same compound, the % Inhibition of Control Specific Binding (Mean n=2) in [9] was 2.8%; in series [11] it was -0.6%; in [12], 8.6%; in [13] it was 54%; in series [14], 7.9%; in series [16], -5.1%. Also, the % Inhibition of Control Specific Binding (Mean n=2) in [18] is -9.9%; in the series filed under Rattus norvegicus, -12.2%; in series [19] it was 11.2%; in [20], -1.7%; in series [21] it was 1.9%. Also, the inhibition at 60 min, 10 µM in series [4] came to 3.3%. Further, the IC50 in [8] was 3780 nM (not active); in series [15] it was 2000 nM (not active). Further, in series [10], the % Inhibition of Control Values (Mean n=2) is -7.5%. Also, the inhibition at 120 min, 10 µM in [17] was 16.2%. Besides, the concentration for a half-maximal effect (EC50) in the series on MOLT-4 is > 10000 nM (not active).
With `CN(C)CC#Cc1ccc(OCCCc2sc(N3CCc4cccc(C(=O)Nc5nc6ccccc6s5)c4C3)nc2C(=O)O)c(F)c1` [A-1155463], the % Inhibition of Control Specific Binding (Mean n=2) is -1.8% in series [1]; 1.1% in series [2]; 18.1% in series [3]; 9.6% in [5]; 11.9% in [6]; -46.8% in series [7]. Besides, the % Inhibition of Control Specific Binding (Mean n=2) in series [9] is 7.8%; in [11], 44.3%; in series [12], 13.8%; in series [13], 71.6%; in [14], 60.6%; in series [16] it was -2.2%. The % Inhibition of Control Specific Binding (Mean n=2) in [18] is 4.1%; in the series filed under Rattus norvegicus, -3.7%; in [19], 9.9%; in [20] it was -6.3%; in series [21], 12.1%. For the same compound, the inhibition at 60 min, 10 µM in [4] was determined as 32.3%. For the same compound, the IC50 in [8] was 382 nM (not active); in series [15], 14000 nM (not active). Besides, the % Inhibition of Control Values (Mean n=2) in series [10] is -17.3%. Also, in [17], the inhibition at 120 min, 10 µM turned out to be 10.8%. The EC50 in the series with MOLT-4 was 214 nM (active).
